Results reported in US8791107B2, “N-substituted oxazinopteridines and oxazinopteridinones” (Takeda Pharmaceutical Company Limited, priority 2011, dated 2014).

biological target: T1, PI3Kδ (Homo sapiens, UniProt O00329); assay: PI3Kδ inhibition, modified PIK3CD Adapta TR-FRET assay; type: biochemical; conditions: recombinant GST-tagged full length PIK3CD co-expressed with PIK3R1 (p85α); 2 μM ATP, 50 μM PIP2; read-out: PI3Kδ Inhibition (pIC50) (converted)
T1 construct: The protein is full length and co-expressed with untagged PIK3R1; GST; purchased Invitrogen PV5274
T1 sequence (O00329 whole entry): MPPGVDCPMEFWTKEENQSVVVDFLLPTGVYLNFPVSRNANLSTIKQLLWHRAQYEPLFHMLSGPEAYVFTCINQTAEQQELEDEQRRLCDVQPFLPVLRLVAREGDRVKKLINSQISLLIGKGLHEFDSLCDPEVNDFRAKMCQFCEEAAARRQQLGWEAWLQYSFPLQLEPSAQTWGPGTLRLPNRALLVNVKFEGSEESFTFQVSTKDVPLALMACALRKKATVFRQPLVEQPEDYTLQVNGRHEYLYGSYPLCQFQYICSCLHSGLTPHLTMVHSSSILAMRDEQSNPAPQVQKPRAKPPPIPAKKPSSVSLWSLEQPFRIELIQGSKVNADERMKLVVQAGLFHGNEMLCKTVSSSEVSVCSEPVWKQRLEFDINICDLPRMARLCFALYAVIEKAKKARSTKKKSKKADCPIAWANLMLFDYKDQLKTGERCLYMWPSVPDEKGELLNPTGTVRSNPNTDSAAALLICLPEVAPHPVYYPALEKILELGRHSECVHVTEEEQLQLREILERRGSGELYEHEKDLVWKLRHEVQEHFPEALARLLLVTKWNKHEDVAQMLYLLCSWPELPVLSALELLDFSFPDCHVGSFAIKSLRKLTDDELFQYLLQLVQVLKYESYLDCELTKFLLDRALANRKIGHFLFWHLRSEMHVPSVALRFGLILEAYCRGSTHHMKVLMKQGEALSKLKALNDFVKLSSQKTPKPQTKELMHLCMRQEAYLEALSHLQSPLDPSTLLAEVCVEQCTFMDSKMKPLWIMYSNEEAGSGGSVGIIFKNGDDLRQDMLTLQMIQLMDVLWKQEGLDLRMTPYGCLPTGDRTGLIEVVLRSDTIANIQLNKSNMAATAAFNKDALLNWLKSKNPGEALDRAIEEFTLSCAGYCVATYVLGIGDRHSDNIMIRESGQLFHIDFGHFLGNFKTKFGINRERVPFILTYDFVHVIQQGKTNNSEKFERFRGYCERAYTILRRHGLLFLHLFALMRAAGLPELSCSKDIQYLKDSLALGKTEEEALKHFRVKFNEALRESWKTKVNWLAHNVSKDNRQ
T1 sequence (P27986 whole entry partner): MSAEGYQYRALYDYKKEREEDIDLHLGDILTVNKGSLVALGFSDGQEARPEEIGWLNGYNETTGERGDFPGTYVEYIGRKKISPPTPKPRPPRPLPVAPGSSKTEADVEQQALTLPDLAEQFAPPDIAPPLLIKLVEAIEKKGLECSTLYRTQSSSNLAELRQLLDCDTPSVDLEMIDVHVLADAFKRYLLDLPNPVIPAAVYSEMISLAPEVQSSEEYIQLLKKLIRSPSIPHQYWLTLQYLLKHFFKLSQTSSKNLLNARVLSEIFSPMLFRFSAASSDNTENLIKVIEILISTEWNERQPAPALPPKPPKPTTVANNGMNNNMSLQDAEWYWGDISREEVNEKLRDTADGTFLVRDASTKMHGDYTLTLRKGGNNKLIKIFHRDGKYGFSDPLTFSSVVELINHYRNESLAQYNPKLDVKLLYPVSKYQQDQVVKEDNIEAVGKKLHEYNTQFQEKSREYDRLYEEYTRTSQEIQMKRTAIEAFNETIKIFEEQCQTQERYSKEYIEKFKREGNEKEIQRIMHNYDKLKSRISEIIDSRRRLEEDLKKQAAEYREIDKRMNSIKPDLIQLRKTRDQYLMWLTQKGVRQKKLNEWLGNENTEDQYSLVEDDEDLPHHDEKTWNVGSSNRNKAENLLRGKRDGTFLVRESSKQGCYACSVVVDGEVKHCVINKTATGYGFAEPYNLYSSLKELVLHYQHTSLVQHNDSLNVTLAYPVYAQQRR
Protocol: The activity of compounds as PI3Kδ inhibitors may be determined by a variety of methods, including in vitro and in vivo methods. The following in vitro assay measures a test compound's ability to inhibit PI3Kδ-mediated phosphorylation of PIP2 and ATP.
Recombinant GST-tagged PIK3CD is purchased from Invitrogen (Part Number: PV5274). The protein is full length and co-expressed with untagged PIK3R1, phosphoinositide-3-kinase regulatory subunit 1 (p85α). The protein is stored at −20° C. in 50 mM TRIS (pH 7.5), 150 mM NaCl, 0.5 mM EDTA, 0.02% Triton® X-100, 2 mM DTT, and 50% glycerol.
A modified PIK3CD Adapta® assay (Invitrogen, Carlsbad, Calif.) is used to measure PI3Kδ inhibition of the example compounds. The assay has two phases. In the first phase, kinase reaction components, which include the enzyme (PIK3CD), substrates (PIP2, ATP), test compound (inhibitor), and assay buffer are added to each well, and the reaction is allowed to incubate for a pre-determined period of time. […] In the presence of the inhibitor, the amount of ADP formed by the kinase reaction is reduced, and the resulting intact antibody-tracer interaction maintains a high TR-FRET signal.
The reaction buffer contains 50 mM Hepes (pH 7.5), 3 mM MgCl2, 1 mM EGTA, 100 mM NaCl, 0.03% CHAPS; 2 mM DTT is added fresh prior to each experiment. […] Next, test compounds (2 μL) from a source plate (5% dilution plate) are introduced into the wells. The final DMSO concentration in each assay well is 1%. […] Other wells contain test compounds serially diluted across the plate 11 times for a total of 12 data points. The kinase reactions are carried out at room temperature and are initiated by the addition of 4 μL of solution containing 2 μM ATP and 50 μM PIP2. […] This emission signal is referenced or “ratioed” to the emission from Eu at 620 nm. […] The percent inhibition for a given inhibitor concentration is computed from % conversion for the reaction and for the positive and negative controls.

IC50 | Compound
0.02 µM | NC(=O)c1ccc(CN2CC3COCCN3c3nc(-c4cccc5[nH]ccc45)ncc32)cc1 (stereo not shown) [Example 78, 4-((2-(1H-indol-4-yl)-6a,7,9,10-tetrahydro-[1,4]oxazino[3,4-h]pteridin-5(6H)-yl)methyl)benzamide]
0.316 µM | CC(=O)Nc1cccc(-c2ncc3c(n2)N2CCOCC2C(=O)N3Cc2ccc(S(C)(=O)=O)cc2)c1 (stereo not shown) [Example 101, N-(3-(5-(4-(methylsulfonyl)benzyl)-6-oxo-5,6,6a,7,9,10-hexahydro-[1,4]oxazino[3,4-h]pteridin-2-yl)phenyl)acetamide]
0.0316 µM | Cc1ccccc1CNC(=O)CN1CC2COCCN2c2nc(-c3cccc4[nH]ccc34)ncc21 (stereo not shown) [Example 41, 2-(2-(1H-indol-4-yl)-6a,7,9,10-tetrahydro-[1,4]oxazino[3,4-h]pteridin-5(6H)-yl)-N-(2-methylbenzyl)acetamide]
0.126 µM | CS(=O)(=O)c1ccc(CN2C(=O)C3COCCN3c3nc(-c4cccc(N)c4)ncc32)cc1 (stereo not shown) [Example 103, 2-(3-aminophenyl)-5-(4-(methylsulfonyl)benzyl)-6a,7,9,10-tetrahydro-[1,4]oxazino[3,4-h]pteridin-6(5H)-one]
2.51 µM | CNC(=O)Nc1ccc(-c2ncc3c(n2)N2CCOCC2CN3Cc2ccc(Cl)cc2)cc1 (stereo not shown) [Example 63, 1-(4-(5-(4-chlorobenzyl)-5,6,6a,7,9,10-hexahydro-[1,4]oxazino[3,4-h]pteridin-2-yl)phenyl)-3-methylurea]
0.00251 µM | CS(=O)(=O)c1ccc(CN2C(=O)C3COCCN3c3nc(-c4cncc5[nH]ccc45)ncc32)cc1 (stereo not shown) [Example 144, 5-(4-(methylsulfonyl)benzyl)-2-(1H-pyrrolo[2,3-c]pyridin-4-yl)-6a,7,9,10-tetrahydro-[1,4]oxazino[3,4-h]pteridin-6(5H)-one]
2.51 µM | CS(=O)(=O)c1ccc(CN2C(=O)C3COCCN3c3nc(-c4ccc5[nH]c(=O)[nH]c5c4)ncc32)cc1 (stereo not shown) [Example 119, 5-(4-(methylsulfonyl)benzyl)-2-(2-oxo-2,3-dihydro-1H-benzo[d]imidazol-5-yl)-6a,7,9,10-tetrahydro-[1,4]oxazino[3,4-h]pteridin-6(5H)-one]
0.501 µM | O=C1Nc2cnc(-c3cccc4[nH]cnc34)nc2N2CCOCC12 (stereo not shown) [Example 152, 2-(1H-benzo[d]imidazol-4-yl)-6a,7,9,10-tetrahydro-[1,4]oxazino[3,4-h]pteridin-6(5H)-one]
0.0398 µM | CCc1cc(CN2C[C@@H]3COCCN3c3nc(-c4cccc5[nH]ccc45)ncc32)on1 [Example 188, (R)-5-((3-ethylisoxazol-5-yl)methyl)-2-(1H-indol-4-yl)-5,6,6a,7,9,10-hexahydro-[1,4]oxazino[3,4-h]pteridine]
0.398 µM | O=C(Cc1coc2ccccc12)N1CC2COCCN2c2nc(-c3cccc4[nH]ccc34)ncc21 (stereo not shown) [Example 52, 1-(2-(1H-indol-4-yl)-6a,7,9,10-tetrahydro-[1,4]oxazino[3,4-h]pteridin-5(6H)-yl)-2-(benzofuran-3-yl)ethanone]
0.000794 µM | CS(=O)(=O)c1ccc(CN2C(=O)C3COCCN3c3nc(-c4cccc5[nH]ccc45)ncc32)cc1 (stereo not shown) [Example 123, 2-(1H-indol-4-yl)-5-(4-(methylsulfonyl)benzyl)-6a,7,9,10-tetrahydro-[1,4]oxazino[3,4-h]pteridin-6(5H)-one]
0.00251 µM | CNC(=O)Nc1ccc(-c2ncc3c(n2)N2CCOCC2C(=O)N3CCc2c(C)n[nH]c2C)cc1 (stereo not shown) [Example 94, 1-(4-(5-(2-(3,5-dimethyl-1H-pyrazol-4-yl)ethyl)-6-oxo-5,6,6a,7,9,10-hexahydro-[1,4]oxazino[3,4-h]pteridin-2-yl)phenyl)-3-methylurea]
0.0251 µM | CCOC(=O)c1cccc(N2C[C@@H]3COCCN3c3nc(-c4cccc5[nH]ccc45)ncc32)c1 [Example 190, (R)-ethyl 3-(2-(1H-indol-4-yl)-6a,7,9,10-tetrahydro-[1,4]oxazino[3,4-h]pteridin-5(6H)-yl)benzoate]
0.0126 µM | O=C(CCN1CC2COCCN2c2nc(-c3cccc4[nH]ccc34)ncc21)NCc1ccco1 (stereo not shown) [Example 34, 3-(2-(1H-indol-4-yl)-6a,7,9,10-tetrahydro-[1,4]oxazino[3,4-h]pteridin-5(6H)-yl)-N-(furan-2-ylmethyl)propanamide]
0.0631 µM | Cc1cccc(CN2CC3COCCN3c3nc(-c4cccc5[nH]ccc45)ncc32)n1 (stereo not shown) [Example 80]
0.00501 µM | CS(=O)(=O)c1ccc(CN2C[C@@H]3COCCN3c3nc(-c4cccc5[nH]ccc45)ncc32)cc1 [Example 29, (R)-2-(1H-indol-4-yl)-5-(4-(methylsulfonyl)benzyl)-5,6,6a,7,9,10-hexahydro-[1,4]oxazino[3,4-h]pteridine]
0.02 µM | O=C(CN1C[C@@H]2COCCN2c2nc(-n3c(C(F)F)nc4ccccc43)ncc21)NCC1CCOCC1 [Example 211, (R)-2-(2-(2-(difluoromethyl)-1H-benzo[d]imidazol-1-yl)-6a,7,9,10-tetrahydro-[1,4]oxazino[3,4-h]pteridin-5(6H)-yl)-N-((tetrahydro-2H-pyran-4-yl)methyl)acetamide]
0.0794 µM | c1ccc(OCCN2CC3COCCN3c3nc(-c4cccc5[nH]ccc45)ncc32)cc1 (stereo not shown) [Example 32, 2-(1H-indol-4-yl)-5-(2-phenoxyethyl)-5,6,6a,7,9,10-hexahydro-[1,4]oxazino[3,4-h]pteridine]
0.0316 µM | N#Cc1ccc(F)c(CN2CC3COCCN3c3nc(-c4cccc5[nH]ccc45)ncc32)c1 (stereo not shown) [Example 60, 3-((2-(1H-indol-4-yl)-6a,7,9,10-tetrahydro-[1,4]oxazino[3,4-h]pteridin-5(6H)-yl)methyl)-4-fluorobenzonitrile]
0.631 µM | CS(=O)(=O)c1ccc(CN2C(=O)C3COCCN3c3nc(-c4cccc(S(N)(=O)=O)c4)ncc32)cc1 (stereo not shown) [Example 115, 3-(5-(4-(methylsulfonyl)benzyl)-6-oxo-5,6,6a,7,9,10-hexahydro-[1,4]oxazino[3,4-h]pteridin-2-yl)benzenesulfonamide]
0.0398 µM | CN(CC1CCOCC1)C(=O)CN1C[C@@H]2COCCN2c2nc(-c3cccc4[nH]ccc34)ncc21 [Example 212, (R)-2-(2-(1H-indol-4-yl)-6a,7,9,10-tetrahydro-[1,4]oxazino[3,4-h]pteridin-5(6H)-yl)-N-methyl-N-((tetrahydro-2H-pyran-4-yl)methyl)acetamide]
0.126 µM | CNC(=O)Nc1ccc(-c2ncc3c(n2)N2CCOCC2C(=O)N3[C@H](C)c2ccc(Cl)cc2)cc1 (stereo partly drawn) [Example 84, 1-(4-(5-((R)-1-(4-chlorophenyl)ethyl)-6-oxo-5,6,6a,7,9,10-hexahydro-[1,4]oxazino[3,4-h]pteridin-2-yl)phenyl)-3-methylurea]
1 µM | COC(=O)c1cncc(N2C[C@@H]3COCCN3c3nc(-c4cccc5[nH]ccc45)ncc32)c1 [Example 199, (R)-methyl 5-(2-(1H-indol-4-yl)-6a,7,9,10-tetrahydro-[1,4]oxazino[3,4-h]pteridin-5(6H)-yl)nicotinate]
0.2 µM | O=C1Nc2cnc(-c3cccc4[nH]ccc34)nc2N2CCOC[C@H]12 (single isomer, unassigned) [Example 149]
0.316 µM | c1ccc(-c2nc(CN3CC4COCCN4c4nc(-c5cccc6[nH]ccc56)ncc43)co2)cc1 (stereo not shown) [Example 37, 2-(1H-indol-4-yl)-5-((2-phenyloxazol-4-yl)methyl)-5,6,6a,7,9,10-hexahydro-[1,4]oxazino[3,4-h]pteridine]
